This is an account of results in ChEMBL document CHEMBL4385594, “4(3H)-Quinazolinone derivatives: Promising antibacterial drug leads” (Eur J Med Chem, 2019).

Experiment [1] concerns MCF7. The experiment can be described thus: Cytotoxicity against human MCF7 cells assessed as reduction in cell viability at 0.1 to 100 uM by MTT assay. Format: functional, cell-based. In general terms: Formazan colour is commonly taken as a measure of viable cells.
The test system of experiment [2] is Staphylococcus aureus. As to the kind of experiment: Antibacterial activity against Staphylococcus aureus assessed as reduction in bacterial cell growth at 0.03 to 64 ug/ml incubated for 16 to 18 hrs by CLSI broth dilution method. Format: functional. Background: Dilution methods test growth across graded concentrations, often in twofold steps.
The subject of experiment [3] is Suillus luteus. The experiment can be described thus: Antifungal activity against Suillus luteus assessed as reduction in fungal cell growth. Format: functional.
The test system of experiment [4] is Escherichia coli. As to the kind of experiment: Antibacterial activity against Escherichia coli assessed as diameter of zone inhibition at 100 ppm by disc diffusion method. Format: functional. The conditions noted are these: read-out: DIZ. In general terms: Agar diffusion results depend on both activity and mobility in agar.
Experiment [5] concerns Staphylococcus aureus. The experiment can be described thus: Antibacterial activity against Staphylococcus aureus assessed as diameter of zone inhibition at 100 ppm by disc diffusion method. The conditions noted are these: read-out: DIZ. Format: functional.
Experiment [6] deals with Staphylococcus aureus. The experiment can be described thus: Antibacterial activity against Staphylococcus aureus ATCC 25923 assessed as reduction in bacterial cell growth at 0.03 to 64 ug/ml incubated for 16 to 18 hrs by CLSI broth dilution method. Format: functional.
In experiment [7] the test system is Escherichia coli. The experiment can be described thus: Antibacterial activity against Escherichia coli ATCC 25922 assessed as reduction in bacterial cell growth at 0.03 to 64 ug/ml incubated for 16 to 18 hrs by CLSI broth dilution method. Format: functional.
Experiment [8] deals with Pseudomonas aeruginosa. The experiment can be described thus: Antibacterial activity against Pseudomonas aeruginosa ATCC 27853 assessed as reduction in bacterial cell growth at 0.03 to 64 ug/ml incubated for 16 to 18 hrs by CLSI broth dilution method. Format: functional.
In experiment [9] the test system is Enterococcus faecalis. As to the kind of experiment: Antibacterial activity against Enterococcus faecalis ATCC 29212 assessed as reduction in bacterial cell growth at 0.03 to 64 ug/ml incubated for 16 to 18 hrs by CLSI broth dilution method. Format: functional.
The test system of experiment [10] is Staphylococcus aureus. As to the kind of experiment: Antibacterial activity against Staphylococcus aureus. Format: functional.
The test system of experiment [11] is Staphylococcus aureus. The experiment can be described thus: Antibacterial activity against Staphylococcus aureus assessed as inhibition zone. Format: functional.

Molecules are shown by their SMILES. Converted amounts (≈) assume the structure as drawn.

For the molecule `Cn1cc[n+](C(Cn2cnc3ccc(Cl)cc3c2=O)c2cc3cc(Br)ccc3o2)c1` (centres undefined), the 50% inhibitory concentration (IC50) in experiment [1] fell in the range of 570 to 1000 nM.
Take `N#Cc1ccc(/C=C/c2nc3ccccc3c(=O)n2-c2cccc(OCc3cn(Cc4ccccc4)nn3)c2)cc1`: the minimal inhibitory concentration (MIC) in experiment [2] came out at 0.5 µg/mL (≈ 0.932 µM).
On the same count and under the same terms, next, `N#Cc1ccc(/C=C/c2nc3ccccc3c(=O)n2-c2cccc(OCc3cn(Cc4ccc([N+](=O)[O-])cc4)nn3)c2)cc1`: 2 µg/mL (≈ 3.44 µM); `N#Cc1ccc(/C=C/c2nc3ccccc3c(=O)n2-c2cccc(OCc3cn(Cc4ccc(Br)cc4)nn3)c2)cc1`: 16 µg/mL (≈ 26 µM).
On the same count and under the same terms, next, `N#Cc1ccc(/C=C/c2nc3ccccc3c(=O)n2-c2ccc(OCc3cn(Cc4ccc(Br)cc4)nn3)cc2)cc1`: greater than 64 µg/mL.
Same read-out and setting: to `N#Cc1ccc(/C=C/c2nc3ccccc3c(=O)n2-c2cccc(OCc3cn(-c4ccc(C(F)(F)F)cc4)nn3)c2)cc1` belongs 4 µg/mL (≈ 6.77 µM); to `N#Cc1ccc(/C=C/c2nc3ccccc3c(=O)n2-c2cccc(OCc3cn(-c4cccc(C(=O)O)c4)nn3)c2)cc1`, 4 µg/mL (≈ 7.06 µM); to `COc1ccc(Cn2cc(COc3cccc(-n4c(/C=C/c5ccc(C#N)cc5)nc5ccccc5c4=O)c3)nn2)cc1`, 0.5 µg/mL (≈ 0.882 µM).
For the molecule `N#Cc1ccc(/C=C/c2nc3ccccc3c(=O)n2-c2cccc(OCc3cn(-c4cccc(Cl)c4)nn3)c2)cc1`, the MIC in [2] is 0.5 µg/mL (≈ 0.898 µM).
Still for that read-out and setting: to `N#Cc1ccc(/C=C/c2nc3ccccc3c(=O)n2-c2cccc(OCc3cn(Cc4cccc(Br)c4)nn3)c2)cc1` belongs 0.5 µg/mL (≈ 0.812 µM); to `Cc1cccc(-n2cc(COc3cccc(-n4c(/C=C/c5ccc(C#N)cc5)nc5ccccc5c4=O)c3)nn2)c1`, 0.5 µg/mL (≈ 0.932 µM).
The same measure, in the same setting: to `O=c1c2ccccc2nc(/C=C/c2ccc(Cl)cc2)n1-c1cccc(OCc2cn(-c3cccc(F)c3)nn2)c1` belongs 4 µg/mL (≈ 7.27 µM); to `COc1ccc(-n2cc(COc3cccc(-n4c(/C=C/c5ccc(C#N)cc5)nc5ccccc5c4=O)c3)nn2)cc1`, 4 µg/mL (≈ 7.24 µM).
On to `N#Cc1ccc(/C=C/c2nc3ccccc3c(=O)n2-c2cccc(OCc3cn(-c4cccc(F)c4)nn3)c2)cc1`, for which the MIC in [2] worked out at 0.5 µg/mL (≈ 0.925 µM).
Still for that read-out and setting: next, `N#Cc1ccc(/C=C/c2nc3ccccc3c(=O)n2-c2cccc(OCc3cn(-c4ccc(Cl)cc4)nn3)c2)cc1`: 0.5 µg/mL (≈ 0.898 µM); `C#CCOc1cccc(-n2c(/C=C/c3ccc(C#N)cc3)nc3c(C)cccc3c2=O)c1`: 1 µg/mL (≈ 2.4 µM).
For the molecule `CCCCNC(=O)Oc1ccc(-n2c(/C=C/c3ccc(Cl)cc3)nc3cc(Cl)ccc3c2=O)cc1`, the MIC in experiment [3] was determined as 125 µg/mL (≈ 246 µM).
On to `Cc1nc2ccc(Br)cc2c(=O)n1/N=C/c1cc(Br)cc(Br)c1O`, for which the zone of inhibition at 100 ppm came out at 27 mm in experiment [4] and 24 mm in experiment [5].
In the case of `Cn1cc[n+](C(Cn2cnc3ccc(Cl)cc3c2=O)c2cc3ccccc3o2)c1` (centres undefined), the concentration for half-maximal inhibition (IC50) in [1] is 570 to 1000 nM.
`CC(C)NC(=O)c1cccc(-n2c(/C=C/c3ccc(C#N)cc3)nc3ccccc3c2=O)c1`: the MIC in experiment [2] amounted to 0.25 µg/mL (≈ 0.575 µM).
The same measure, in the same setting: next, `N#Cc1ccc(/C=C/c2nc3ccccc3c(=O)n2-c2cccc(C#N)c2)cc1`: 0.5 µg/mL (≈ 1.34 µM).
On to `O=c1c2c(Br)cc(Br)cc2nc(-c2ccccc2)n1-c1nc2ccc(Br)cc2s1`, for which the MIC in experiment [6], in [7], in experiment [8] and in [9] was 1 to 8.5 µg/mL (≈ 1.69 to 14.4 µM) throughout.
Turning to `Cc1nc2ccc(Br)cc2c(=O)n1/N=C/c1cc(I)cc(I)c1O`, the zone of inhibition at 100 ppm came out at 16 mm in experiment [4] and 14 mm in [5].
Turning to `Cc1nc2ccc(Br)cc2c(=O)n1/N=C/c1cc(Cl)cc(Cl)c1O`, the values for the zone of inhibition at 100 ppm in [4] and in experiment [5] were 16 mm and 14 mm, respectively.
For `C=CCOc1cccc(-n2c(/C=C/c3ccc(C#N)cc3)nc3ccccc3c2=O)c1`, the MIC in [2] worked out at 0.125 µg/mL (≈ 0.308 µM).
Take `COc1ccc2ncn(CC(c3cc4ccccc4o3)[n+]3ccn(C)c3)c(=O)c2c1` (centres undefined): the IC50 in experiment [1] fell in the range of 570 to 1000 nM.
As for `Cc1ccc2c(c1)c(=O)n(-c1ccccc1)c1nnc(-c3ccccc3)n21`, 32 µg/mL (≈ 90.8 µM) was the least that counted as inhibitory in [10] (MIC). In experiment [11], the “inhibition zone (IZ)” value turned out to be 17 mm.
Turning to `O=c1c2c(Br)cc(Br)cc2nc(-c2ccccc2)n1-c1nc2cc(Cl)ccc2s1`, the MIC in experiment [6], in experiment [7], in experiment [8] and in experiment [9] was 1.2 to 9 µg/mL (≈ 2.19 to 16.4 µM) in each case.
As for `Cc1cccc2c(=O)n(-c3cccc(O)c3)c(/C=C/c3ccc(C#N)cc3)nc12`, the MIC in experiment [2] is 0.5 µg/mL (≈ 1.32 µM).

Usually IC50 stands for the midpoint of a concentration-inhibition curve. One may read the MIC as the lowest concentration found to suppress growth.
